Source: ChEMBL document CHEMBL4680367, “Targeting Stimulator of Interferon Genes (STING) for the Potential Treatment of Cancer and Infectious Diseases” (ACS Med Chem Lett, 2021)

Target: Stimulator of interferon genes protein (Homo sapiens, UniProt Q86WV6)
Assay: Agonist activity at full length human STING expressed in HEK293T cotransfected with pISRE-luc and cGAS incubated for 24 hrs by steady-glo luciferase reporter gene assay
Assay type: cell-based

Chain of Stimulator of interferon genes protein (Q86WV6 whole entry): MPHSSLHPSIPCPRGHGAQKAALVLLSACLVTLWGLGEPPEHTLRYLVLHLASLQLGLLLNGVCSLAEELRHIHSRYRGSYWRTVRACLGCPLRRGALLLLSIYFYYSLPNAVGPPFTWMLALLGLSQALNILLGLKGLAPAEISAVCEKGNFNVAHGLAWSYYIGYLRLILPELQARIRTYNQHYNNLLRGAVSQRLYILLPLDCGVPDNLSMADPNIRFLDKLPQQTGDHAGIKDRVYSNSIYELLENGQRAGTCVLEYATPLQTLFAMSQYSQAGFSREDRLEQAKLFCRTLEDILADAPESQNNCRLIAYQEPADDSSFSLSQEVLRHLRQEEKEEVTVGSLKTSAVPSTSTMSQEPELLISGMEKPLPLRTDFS

EC50: 1000 nM
SMILES: CCCn1c(NC(=O)c2cc(C)nn2CC)nc2cc(C(N)=O)cc(OCN3CCOCC3)c21
